{"source": "patent US5358937A", "about": "“Glycosyl phospholipid derivatives of nucleosides and their use as medicines” (priority 1989, dated 1994)", "key": {"[1]": {"test_system": "HIV virus (isolate LAV1-BRU)", "assay": "selectivity index / protection index (CD50/ED50 ratio)", "type": "cell-based", "description": "Determination of the selectivity index\nThe higher the difference between the CD50 and the ED50, the more useful will be the product. This difference is quantified by the selectivity index (the CD50/ED50 ratio)."}, "[2]": {"test_system": "HIV virus (isolate LAV1-BRU)", "assay": "inhibition of the cytopathogenic effect (CPE) of the HIV virus toward a continuous line of T4 lymphocytes by colorimetric assay with MTT", "type": "cell-based"}, "[3]": {"assay": "in vitro", "conditions": "human, cem-c113 cells"}, "[4]": {"assay": "HPLC assay of AZT in the brain of mice after oral administration", "type": "in vivo, Swiss mouse", "method": "The assays are conducted on the Swiss mouse.\nThe compounds are dissolved in distilled water (or suspended in distilled water) before being administered by gavage; the assays are performed by administering each compound to 3 mice. The control consists of 3 mice receiving the equivalent of the vehicle, i.e. the same volume of distilled water as the treated mice. The brains are removed 1 hour after garage, homogenized in an acetonitrile-water (3/1) mixture, centrifuged and the supernatant is taken for the HPLC assay.\nIn a preliminary trial, favourable experimental conditions for the assays of the different compounds by HPLC are determined.\nIn the table which follows, each line corresponds to an assay series."}, "[5]": {"assay": "31P-NMR study of the interactions between the phosphotriesters and model membranes (transmembrane transport)"}, "[6]": {"test_system": "HIV virus; viral reverse transcriptase", "assay": "inhibition of viral replication by microassay of the enzymatic activity of the viral reverse transcriptase in CEM culture supernatants", "type": "cell-based", "design": "unit not given here"}}, "note": "pEC50: −log10 of the molar value. Like-named read-outs stand apart in the source and are kept apart here."}
{"smiles": "CCCCCCCCCCCCCCCCOP(=O)(OC[C@H]1OC(O)[C@@H](O)[C@@H](O)[C@@H]1O)OC[C@H]1O[C@@H](n2cc(C)c(=O)[nH]c2=O)C[C@@H]1N=[N+]=[N-]", "note": "(stereo partly drawn) [CT 7627, 6-D-mannosyl hexadecyl 5'-(3'-azido)-thymidinyl phosphate]", "values": [{"measurement": "PROTECTION INDICES (P.I.), CD50/ED50", "setting": "[1]", "result": "> 13"}, {"measurement": "pEC50", "setting": "[2]; Human immunodeficiency virus 1, CEM-c113, read-out: ED50 (protective dose 50%), D7 of culture, CEM-C113 cells", "result": "> 6.70"}, {"measurement": "pEC50", "setting": "[2]; Human immunodeficiency virus 1, CEM-c113, read-out: ED50 (protective dose 50%), D11 of culture, CEM-C113 cells", "result": 6.52}, {"measurement": "pEC50", "setting": "[2]; Human immunodeficiency virus 1, CEM-c113, read-out: ED50 (protective dose 50%), D19 of culture, CEM-C113 cells", "result": 6.30}, {"measurement": "pEC50", "setting": "[2]; Human immunodeficiency virus 1, CEM-c113, read-out: ED50 (protective dose 50%), D22 of culture, CEM-C113 cells", "result": 6.40}, {"measurement": "CC50 at 168 h", "setting": "[3]", "result": 2600, "unit": "nM"}, {"measurement": "CC50 at 264 h", "setting": "[3]", "result": 2600, "unit": "nM"}, {"measurement": "CC50 at 456 h", "setting": "[3]", "result": 2500, "unit": "nM"}, {"measurement": "CC50 at 528 h", "setting": "[3]", "result": 25000, "unit": "nM"}, {"measurement": "Phosphotriester detected by HPLC per gram of brain, individual value", "setting": "[4]; 25 mg/kg oral, 1 hour, AZT equivalent micromol per mouse: CT 6651, CT 7627 0.68, CT 7625 0.64", "result": 0, "unit": "µg"}, {"measurement": "concentration at 1 h", "setting": "[4]; mouse, brain, po, 25 mg/kg, read-out: Phosphodiester detected by HPLC per gram of brain, individual value", "result": 2050, "unit": "ng/g"}, {"measurement": "interaction with / location in unilamellar vesicles (in words)", "setting": "[5]", "result": "interacts only with the external lipid layer of the unilamellar vesicles"}, {"measurement": "reverse transcriptase activity in culture supernatant", "setting": "[6]; 0.2 uM, D7", "result": 4000}, {"measurement": "reverse transcriptase activity in culture supernatant", "setting": "[6]; 0.2 uM, D11", "result": 4700}, {"measurement": "reverse transcriptase activity in culture supernatant", "setting": "[6]; 0.2 uM, D18", "result": 1700}, {"measurement": "reverse transcriptase activity in culture supernatant", "setting": "[6]; 0.2 uM, D19", "result": 11000}, {"measurement": "reverse transcriptase activity in culture supernatant", "setting": "[6]; 0.2 uM, D22", "result": 24000}, {"measurement": "reverse transcriptase activity in culture supernatant", "setting": "[6]; 0.2 uM, D26", "result": 73000}, {"measurement": "reverse transcriptase activity in culture supernatant", "setting": "[6]; 1 uM, D7", "result": 2000}, {"measurement": "reverse transcriptase activity in culture supernatant", "setting": "[6]; 1 uM, D11", "result": 1100}, {"measurement": "reverse transcriptase activity in culture supernatant", "setting": "[6]; 1 uM, D18", "result": 500}, {"measurement": "reverse transcriptase activity in culture supernatant", "setting": "[6]; 1 uM, D19", "result": 1400}, {"measurement": "reverse transcriptase activity in culture supernatant", "setting": "[6]; 1 uM, D22", "result": 3900}, {"measurement": "reverse transcriptase activity in culture supernatant", "setting": "[6]; 1 uM, D26", "result": 20000}]}
